Measured values from ChEMBL document CHEMBL4483862, “Open-source discovery of chemical leads for next-generation chemoprotective antimalarials” (2018).

Tested on: Plasmodium berghei
Test: Luciferase/luciferin-expressing antifolate-resistant parasites were used to infect a culture of HepG2 cells that were pre-incubated with compounds. Infected hepatocytes emit light due to the luciferase reaction. Assay results are presented as the percent inhibition of light emission compared to control. […]
Assay type: functional
Details: sporozoite; for IC90: read-out: LUCIFERASE INFECTION ASSAY - IC90
[1] = read-out: LUCIFERASE INFECTION ASSAY - IC50

SMILES | IC90 [µM] | further results
Cc1c(OCC(=O)Nc2ccccc2)ccc2c1OC(C)(C)C=C2 | 0.79 | IC50 (FFLUC_HILL_SLOPE 0.847, FFLUC_R_SQUARED 0.632, PBLUC_HILL_SLOPE 1.69, PBLUC_R_SQUARED 0.702, read-out: LUCIFERASE INFECTION ASSAY - IC50): 0.216 µM
CCOC(=O)c1sc(NC(=O)c2ccc([N+](=O)[O-])s2)nc1C | 3.85 | IC50 (PBLUC_HILL_SLOPE 17.3, PBLUC_R_SQUARED 0.599, read-out: LUCIFERASE INFECTION ASSAY - IC50): 3.39 µM
Cc1ccc(Sc2nc3ccccc3nc2NS(=O)(=O)c2ccc(F)cc2C)cc1 | > 10 | IC50 (HEPG2TOX_HILL_SLOPE 0.43, HEPG2TOX_R_SQUARED 0.741, read-out: LUCIFERASE INFECTION ASSAY - IC50): > 10 µM
CSc1nccc(-c2sc(SC)c3c2CC(C)(C)CC3=O)n1 | > 9.41 | IC50 [1]: > 9.41 µM
O=C(Nc1ccc[n+](Cc2ccccc2)c1)c1ccccc1-c1ccc(C(F)(F)F)cc1 | > 10 | IC50 (PBLUC_HILL_SLOPE 3.37, PBLUC_R_SQUARED 0.68, read-out: LUCIFERASE INFECTION ASSAY - IC50): 5.76 µM
CN(C)Cc1ccc(CNc2ncnc3scc(-c4ccccc4)c23)cc1 | 2.66 | IC50 [1]: 0.704 µM
C=CCn1c(SCc2ccccn2)nc2sccc2c1=O | > 10 | IC50 (HEPG2TOX_HILL_SLOPE 8.76, HEPG2TOX_R_SQUARED 0.722, PBLUC_HILL_SLOPE 2.66, PBLUC_R_SQUARED 0.469, read-out: LUCIFERASE INFECTION ASSAY - IC50): 8.34 µM
COc1ccc(NS(=O)(=O)c2ccc3oc(SC(C)C(=O)N4CCNC4=O)nc3c2)cc1 (stereo not drawn) | > 10 | IC50 [1]: > 10 µM
Cc1nc(NC(=O)CSc2nnc(-c3c[nH]c4ccccc34)n2C2CC2)c(Cl)cc1Cl | > 10 | IC50 (HEPG2TOX_HILL_SLOPE 15.3, 2.10, HEPG2TOX_R_SQUARED 0.288, 0.992, PBLUC_HILL_SLOPE 2.43, PBLUC_R_SQUARED 0.583, read-out: LUCIFERASE INFECTION ASSAY - IC50): 4.48 µM
Cc1cccc2nc(CSC(=S)NCc3cccnc3)cn12 | > 10 | IC50 (HEPG2TOX_HILL_SLOPE 3.71, HEPG2TOX_R_SQUARED 0.958, PBLUC_HILL_SLOPE 13, PBLUC_R_SQUARED 0.345, read-out: LUCIFERASE INFECTION ASSAY - IC50): 9.61 µM
CN1C(=O)N(CCc2ccccc2)C(=O)C12CCN(Cc1ccc3c(c1)Cc1ccccc1-3)CC2 | > 7.09 | IC50 [1]: 6.49 µM
COc1ccc(CN2C(=O)c3ccccc3C(C=NNC(=O)Cc3cccn3C)C2=O)cc1 (stereo not drawn) | 4.28 | IC50 (FFLUC_HILL_SLOPE 212, FFLUC_R_SQUARED 0.138, HEPG2TOX_HILL_SLOPE 1.34, HEPG2TOX_R_SQUARED 0.84, PBLUC_HILL_SLOPE 13.5, PBLUC_R_SQUARED 0.236, read-out: LUCIFERASE INFECTION ASSAY - IC50): 3.64 µM
Cc1nn(-c2ccc(F)cc2)c(C)c1/C=C/C(=O)OCC(=O)Nc1cc(S(=O)(=O)N2CCOCC2)ccc1Cl | > 10 | IC50 [1]: > 10 µM
O=C(NCCOc1ccc2ccccc2c1)c1ccccc1O | > 10 | IC50 (PBLUC_HILL_SLOPE 7.72, PBLUC_R_SQUARED 0.601, read-out: LUCIFERASE INFECTION ASSAY - IC50): 9.34 µM
CC1CCC(N(C)C(=O)C2CCN(S(=O)(=O)c3ccc4c(c3)CCC4)CC2)CC1 (stereo not drawn) | > 10 | IC50 (PBLUC_HILL_SLOPE 16.6, PBLUC_R_SQUARED 0.0251, read-out: LUCIFERASE INFECTION ASSAY - IC50): 9.82 µM
Cc1cc(NC(=O)C2CC2)sc1C(=O)N1CCNC(=O)C1 | > 10 | IC50 [1]: > 10 µM
CC(C)n1ncc2cc(C(=O)Nc3nc(-c4cccnc4)cs3)cnc21 | > 10 | IC50 (HEPG2TOX_HILL_SLOPE 1.63, HEPG2TOX_R_SQUARED 0.918, read-out: LUCIFERASE INFECTION ASSAY - IC50): > 10 µM
CCc1c(C)nc2c(-c3ccccc3)c(C)nn2c1Nc1ccc(NC(C)=O)cc1 | > 8.26 | IC50 (PBLUC_HILL_SLOPE 3.43, PBLUC_R_SQUARED 0.461, read-out: LUCIFERASE INFECTION ASSAY - IC50): 5.52 µM
CC(Sc1nc2ccccc2c(=O)n1-c1ccccc1F)c1nnc(-c2cccs2)o1 (stereo not drawn) | > 10 | IC50 (HEPG2TOX_HILL_SLOPE 12.8, HEPG2TOX_R_SQUARED 0.22, PBLUC_HILL_SLOPE 16.4, PBLUC_R_SQUARED 0.485, read-out: LUCIFERASE INFECTION ASSAY - IC50): 8.88 µM
COc1cc(CCC2CCN(CC(=O)c3c(N)n(C)c(=O)n(C)c3=O)CC2)cc(OC)c1 | > 10 | IC50 (PBLUC_HILL_SLOPE 1.27, PBLUC_R_SQUARED 0.409, read-out: LUCIFERASE INFECTION ASSAY - IC50): 5.13 µM

SMILES | IC90 [µM] | further results
Cn1nc(C(C)(C)C)cc1NC(=O)Cc1ccc(-c2ccccc2)cc1 | > 10 | IC50 (HEPG2TOX_HILL_SLOPE 0.763, HEPG2TOX_R_SQUARED 0.965, PBLUC_HILL_SLOPE 1.31, PBLUC_R_SQUARED 0.513, read-out: LUCIFERASE INFECTION ASSAY - IC50): 2.95 µM
CC(Nc1ccc(Oc2cccc(F)c2)cc1)C(=O)N1CCNC1=O (stereo not drawn) | 1.08 | IC50 (PBLUC_HILL_SLOPE 25, PBLUC_R_SQUARED 0.491, read-out: LUCIFERASE INFECTION ASSAY - IC50): 0.991 µM
Cc1onc(-c2c(Cl)cccc2Cl)c1C(=O)Nc1ccccc1SCc1noc(-c2cccs2)n1 | > 6.07 | IC50 (FFLUC_HILL_SLOPE 4.47, FFLUC_R_SQUARED 0.309, read-out: LUCIFERASE INFECTION ASSAY - IC50): > 6.07 µM
CCOc1ccc(-n2c(SCC(=O)Nc3cc(C(C)(C)C)nn3-c3ccccc3)nc3ccccc32)cc1 | > 10 | IC50 (FFLUC_HILL_SLOPE 35.3, FFLUC_R_SQUARED 0.234, PBLUC_HILL_SLOPE 11.6, PBLUC_R_SQUARED 0.616, read-out: LUCIFERASE INFECTION ASSAY - IC50): 8.73 µM
CCNC(=O)C(C)Nc1ncnc2scc(-c3ccc(OC)cc3)c12 (stereo not drawn) | 9.59 | IC50 (FFLUC_HILL_SLOPE 11.3, FFLUC_R_SQUARED 0.625, HEPG2TOX_HILL_SLOPE 3.17, HEPG2TOX_R_SQUARED 0.973, PBLUC_HILL_SLOPE 4.87, PBLUC_R_SQUARED 0.647, read-out: LUCIFERASE INFECTION ASSAY - IC50): 6.11 µM
CC(=O)c1ccc(S(=O)(=O)N(Cc2c(F)cccc2Cl)C2CC2)cc1 | > 10 | IC50 [1]: > 10 µM
COc1ccc(Nc2nc(CN3CCN(Cc4ccc(C#N)cc4)CC3)cs2)cc1 | > 10 | IC50 [1]: > 10 µM
CC1(C)CCc2cc(/C=N/OC(=O)Nc3ccc(OC(F)(F)F)cc3)ccc2O1 | > 8.08 | IC50 [1]: > 8.08 µM
O=C(Nc1cccc(Cl)c1)Nc1csc([N+](=O)[O-])c1 | 9.45 | IC50 (HEPG2TOX_HILL_SLOPE 11, HEPG2TOX_R_SQUARED 0.423, PBLUC_HILL_SLOPE 4.17, PBLUC_R_SQUARED 0.367, read-out: LUCIFERASE INFECTION ASSAY - IC50): 5.58 µM
O=C(NCCC1=CCCCC1)Nc1ccc(OC(F)(F)F)cc1 | > 10.1 | IC50 (PBLUC_HILL_SLOPE 77.5, PBLUC_R_SQUARED 0.175, read-out: LUCIFERASE INFECTION ASSAY - IC50): > 10.1 µM
O=C(c1ccc(Cn2cccn2)cc1)N(C/C=C/c1ccccc1)c1ccc2c(c1)OCCO2 | 5.09 | IC50 (PBLUC_HILL_SLOPE 14.4, PBLUC_R_SQUARED 0.81, read-out: LUCIFERASE INFECTION ASSAY - IC50): 4.37 µM
CCOC(=O)c1c(C)[nH]c(/C(C)=N/Nc2nc3ccccc3[nH]2)c1C | > 10 | IC50 (HEPG2TOX_HILL_SLOPE 6.05, HEPG2TOX_R_SQUARED 0.279, PBLUC_HILL_SLOPE 4.56, PBLUC_R_SQUARED 0.397, read-out: LUCIFERASE INFECTION ASSAY - IC50): 8.41 µM
CN(Cc1ccccc1N1CCCCC1)C(=O)c1ccc(NC(=O)C2CC2)s1 | > 10 | IC50 [1]: > 10 µM
Cc1c(C(=O)Nc2ncccc2O)[nH]c2c1C(=O)CCC2 | > 10 | IC50 (FFLUC_HILL_SLOPE 16.5, FFLUC_R_SQUARED 0.153, HEPG2TOX_HILL_SLOPE 5.63, HEPG2TOX_R_SQUARED 0.429, read-out: LUCIFERASE INFECTION ASSAY - IC50): > 10 µM
O=C(O)Cc1c(-c2ccc3c(c2)OCCO3)nc2ccc([N+](=O)[O-])cc2c1-c1ccccc1 | 8.54 | IC50 (HEPG2TOX_HILL_SLOPE 0.567, HEPG2TOX_R_SQUARED 0.724, PBLUC_HILL_SLOPE 1.12, 2.95, PBLUC_R_SQUARED 0.872, 0.627, read-out: LUCIFERASE INFECTION ASSAY - IC50): 3.34 µM
CC(=O)c1cccc(-c2cnc3ccc(Cc4ccccc4)nn23)c1 | 8.78 | IC50 (HEPG2TOX_HILL_SLOPE 1.13, HEPG2TOX_R_SQUARED 0.363, PBLUC_HILL_SLOPE 4.01, PBLUC_R_SQUARED 0.469, read-out: LUCIFERASE INFECTION ASSAY - IC50): 5.08 µM
CCCCCCN(C(=O)COC(=O)c1c(C)[nH]c(C2CC2)nc1=O)c1nc(-c2ccccc2)cs1 | 4.6 | IC50 (PBLUC_HILL_SLOPE 8.31, PBLUC_R_SQUARED 0.597, read-out: LUCIFERASE INFECTION ASSAY - IC50): 3.53 µM
Cc1c(C)n(CCCO)c2ncn3nc(-c4cccs4)nc3c12 | > 10.1 | IC50 (PBLUC_HILL_SLOPE 0.662, PBLUC_R_SQUARED 0.606, read-out: LUCIFERASE INFECTION ASSAY - IC50): 4.42 µM
Clc1cccc(Cl)c1/C=C/c1cc[nH]n1 | > 13.8 | IC50 (HEPG2TOX_HILL_SLOPE 3.46, HEPG2TOX_R_SQUARED 0.979, PBLUC_HILL_SLOPE 12.7, PBLUC_R_SQUARED 0.349, read-out: LUCIFERASE INFECTION ASSAY - IC50): 12 µM
